Legend:
TYK2 = TYK2 (Homo sapiens (Human), UniProt P29597); test: Biochemical JAK kinase assay (LanthaScreen), Tyk2; settings: read-out: Tyk2 pKi (converted)
Protocol: A panel of four LanthaScreen JAK biochemical assays (JAK1, 2, 3 and Tyk2) were carried in a common kinase reaction buffer (50 mM HEPES, pH 7.5, 0.01% Brij-35, 10 mM MgCl2, and 1 mM EGTA). Recombinant GST-tagged JAK enzymes and a GFP-tagged STAT1 peptide substrate were obtained from Life Technologies.
Serially diluted compounds were pre-incubated with each of the four JAK enzymes and the substrate in white 384-well microplates (Corning) at ambient temperature for 1 h. ATP was subsequently added to initiate the kinase reactions in 10 μL total volume, with 1% DMSO. The final enzyme concentrations for JAK1, 2, 3 and Tyk2 are 4.2 nM, 0.1 nM, 1 nM, and 0.25 nM respectively; the corresponding Km ATP concentrations used are 25 μM, 3 μM, 1.6 μM, and 10 μM; while the substrate concentration is 200 nM for all four assays. Kinase reactions were allowed to proceed for 1 hour at ambient temperature before a 10 μL preparation of EDTA (10 mM final concentration) and Tb-anti-pSTAT1 (pTyr701) antibody (Life Technologies, 2 nM final concentration) in TR-FRET dilution buffer (Life Technologies) was added. The plates were allowed to incubate at ambient temperature for 1 h before being read on the EnVision reader (Perkin Elmer). Emission ratio signals (520 nm/495 nm) were recorded and utilized to calculate the percent inhibition values based on DMSO and background controls.
For dose-response analysis, percent inhibition data were plotted vs. compound concentrations, and IC50 values were determined from a 4-parameter robust fit model with the Prism software (GraphPad Software). Results were expressed as pIC50 (negative logarithm of IC50) and subsequently converted to pKi (negative logarithm of dissociation constant, Ki) using the Cheng-Prusoff equation.
Test compounds having a lower Ki value or higher pKi value in the four JAK assays show greater inhibition of JAK activity.

[1] = system: IL-13 induced STAT6 phosphorylation in BEAS-2B human lung epithelial cells; test: Cellular JAKI potency assay (BEAS-2B); assay type: cell-based; settings: BEAS-2B cells; for IC50: Homo sapiens, BEAS-2B, read-out: BEAS2B pIC50 (converted)
Method in brief: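 AlphaLISA SureFire detection of Tyr641 pSTAT6 in lysates gave IC50s (4-parameter fit, expressed as pIC50). Cells: human BEAS-2B, exposed 1 h at 37 °C to compound dose series at 0.1% DMSO, then 30 min to IL-13 added at 80 ng/mL in HEPES-buffered HBSS with BSA.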

JAK1 = JAK1 (Homo sapiens (Human), UniProt P23458); test: Biochemical JAK kinase assay (LanthaScreen), JAK1; settings: for Ki: read-out: JAK1 pKi (converted)
Chain of JAK1 (P23458 whole entry): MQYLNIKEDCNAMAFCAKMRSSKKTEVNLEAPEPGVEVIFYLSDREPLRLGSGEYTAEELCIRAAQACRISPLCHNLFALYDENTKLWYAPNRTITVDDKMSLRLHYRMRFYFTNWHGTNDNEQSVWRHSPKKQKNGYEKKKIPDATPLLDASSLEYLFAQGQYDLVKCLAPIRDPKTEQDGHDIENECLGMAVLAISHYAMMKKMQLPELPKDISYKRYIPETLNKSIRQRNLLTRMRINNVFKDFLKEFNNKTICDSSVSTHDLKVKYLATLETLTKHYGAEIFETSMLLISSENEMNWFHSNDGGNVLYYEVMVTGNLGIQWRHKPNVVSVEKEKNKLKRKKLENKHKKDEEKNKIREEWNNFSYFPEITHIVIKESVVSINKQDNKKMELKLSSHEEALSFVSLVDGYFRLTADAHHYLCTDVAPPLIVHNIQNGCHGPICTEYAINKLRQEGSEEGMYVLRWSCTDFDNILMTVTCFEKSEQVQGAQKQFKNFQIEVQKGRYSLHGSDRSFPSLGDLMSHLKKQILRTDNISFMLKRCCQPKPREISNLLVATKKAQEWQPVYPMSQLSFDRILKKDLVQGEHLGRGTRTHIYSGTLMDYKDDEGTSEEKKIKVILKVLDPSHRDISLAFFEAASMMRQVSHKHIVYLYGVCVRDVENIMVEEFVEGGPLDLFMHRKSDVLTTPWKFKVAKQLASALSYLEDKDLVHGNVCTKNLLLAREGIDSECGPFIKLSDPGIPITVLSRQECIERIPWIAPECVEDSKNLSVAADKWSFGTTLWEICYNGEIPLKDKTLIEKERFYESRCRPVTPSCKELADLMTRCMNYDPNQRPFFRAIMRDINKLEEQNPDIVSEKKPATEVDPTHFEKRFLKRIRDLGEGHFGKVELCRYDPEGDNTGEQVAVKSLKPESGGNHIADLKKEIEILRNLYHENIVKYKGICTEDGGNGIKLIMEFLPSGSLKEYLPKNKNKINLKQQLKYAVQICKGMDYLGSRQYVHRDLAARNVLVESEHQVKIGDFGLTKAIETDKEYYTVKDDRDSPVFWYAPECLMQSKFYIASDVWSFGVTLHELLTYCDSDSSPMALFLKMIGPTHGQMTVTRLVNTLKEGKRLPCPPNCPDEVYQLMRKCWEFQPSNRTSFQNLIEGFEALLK
Method in brief: (§1)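 LanthaScreen format: phospho-STAT1 (pTyr701) detected with 2 nM Tb antibody after 10 mM EDTA quench. Kinase step used Km-level ATP and 200 nM STAT1 peptide, 1 h at ambient after 1 h pre-incubation. Inhibition fitted to IC50, reported as pKi.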

JAK2 = JAK2 (Homo sapiens (Human), UniProt O60674); test: Biochemical JAK kinase assay (LanthaScreen), JAK2; settings: for Ki: read-out: JAK2 pKi (converted)
Chain of JAK2 (O60674 whole entry): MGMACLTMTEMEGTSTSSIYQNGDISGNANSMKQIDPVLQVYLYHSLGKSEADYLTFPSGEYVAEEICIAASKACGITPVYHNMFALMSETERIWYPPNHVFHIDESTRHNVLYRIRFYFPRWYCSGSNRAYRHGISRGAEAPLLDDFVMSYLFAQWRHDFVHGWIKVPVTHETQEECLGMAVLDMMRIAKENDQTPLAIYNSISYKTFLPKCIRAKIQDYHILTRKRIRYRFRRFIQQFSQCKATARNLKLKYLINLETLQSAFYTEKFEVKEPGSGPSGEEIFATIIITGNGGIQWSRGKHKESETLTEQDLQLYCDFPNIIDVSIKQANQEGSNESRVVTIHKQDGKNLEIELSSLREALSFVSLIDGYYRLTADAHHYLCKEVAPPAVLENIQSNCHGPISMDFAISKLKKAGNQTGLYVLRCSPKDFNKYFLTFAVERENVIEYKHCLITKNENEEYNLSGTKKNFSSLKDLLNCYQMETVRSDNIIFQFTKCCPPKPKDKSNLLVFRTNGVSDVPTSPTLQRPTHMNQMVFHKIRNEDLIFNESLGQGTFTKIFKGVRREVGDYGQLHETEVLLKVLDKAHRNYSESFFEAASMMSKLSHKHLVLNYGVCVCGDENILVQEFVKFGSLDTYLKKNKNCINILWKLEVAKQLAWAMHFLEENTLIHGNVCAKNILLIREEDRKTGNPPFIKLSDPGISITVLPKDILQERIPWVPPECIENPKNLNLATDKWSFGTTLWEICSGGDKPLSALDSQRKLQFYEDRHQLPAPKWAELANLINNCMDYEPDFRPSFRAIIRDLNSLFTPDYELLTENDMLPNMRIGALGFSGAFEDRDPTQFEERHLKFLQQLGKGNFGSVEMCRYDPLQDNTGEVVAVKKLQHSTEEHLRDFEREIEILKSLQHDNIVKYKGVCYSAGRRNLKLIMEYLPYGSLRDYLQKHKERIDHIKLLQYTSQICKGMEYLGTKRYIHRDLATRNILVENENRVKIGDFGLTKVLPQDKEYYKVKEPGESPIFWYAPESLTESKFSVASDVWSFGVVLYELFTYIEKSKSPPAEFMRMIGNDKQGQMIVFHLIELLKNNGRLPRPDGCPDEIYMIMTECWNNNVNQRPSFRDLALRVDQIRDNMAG
Method in brief: as §1

Chain of TYK2 (P29597 whole entry): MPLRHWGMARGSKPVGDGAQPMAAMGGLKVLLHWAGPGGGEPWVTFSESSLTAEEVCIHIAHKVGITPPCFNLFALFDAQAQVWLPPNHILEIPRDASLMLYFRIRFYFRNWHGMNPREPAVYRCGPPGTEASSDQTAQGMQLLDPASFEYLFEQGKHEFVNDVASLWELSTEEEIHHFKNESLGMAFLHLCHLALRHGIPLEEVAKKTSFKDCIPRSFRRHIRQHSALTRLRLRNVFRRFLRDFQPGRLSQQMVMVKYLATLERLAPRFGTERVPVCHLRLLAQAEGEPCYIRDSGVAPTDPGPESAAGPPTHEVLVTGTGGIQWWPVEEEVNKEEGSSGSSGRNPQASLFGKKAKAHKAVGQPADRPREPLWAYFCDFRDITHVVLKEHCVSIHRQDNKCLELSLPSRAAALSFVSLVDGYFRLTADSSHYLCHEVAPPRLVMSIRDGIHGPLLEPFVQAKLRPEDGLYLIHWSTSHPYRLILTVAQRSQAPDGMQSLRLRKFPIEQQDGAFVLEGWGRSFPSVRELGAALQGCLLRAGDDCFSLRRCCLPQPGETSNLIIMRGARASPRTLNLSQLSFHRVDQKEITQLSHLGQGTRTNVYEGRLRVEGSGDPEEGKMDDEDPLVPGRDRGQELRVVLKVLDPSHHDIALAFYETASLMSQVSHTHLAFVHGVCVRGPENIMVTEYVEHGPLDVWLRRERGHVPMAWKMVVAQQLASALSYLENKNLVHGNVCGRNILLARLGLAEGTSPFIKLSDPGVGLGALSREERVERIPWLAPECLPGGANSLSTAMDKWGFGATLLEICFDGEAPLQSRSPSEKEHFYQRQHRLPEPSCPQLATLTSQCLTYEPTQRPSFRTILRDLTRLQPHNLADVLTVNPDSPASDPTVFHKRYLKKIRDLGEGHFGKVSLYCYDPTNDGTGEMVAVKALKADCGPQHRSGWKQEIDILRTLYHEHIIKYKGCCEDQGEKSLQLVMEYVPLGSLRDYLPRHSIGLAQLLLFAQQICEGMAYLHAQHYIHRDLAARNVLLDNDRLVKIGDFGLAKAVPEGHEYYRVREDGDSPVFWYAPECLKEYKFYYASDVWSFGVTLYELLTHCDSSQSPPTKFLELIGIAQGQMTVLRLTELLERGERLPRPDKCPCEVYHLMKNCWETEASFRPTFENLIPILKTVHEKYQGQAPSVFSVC

| Structure (SMILES) | Ki (TYK2) | IC50 [1] | Ki (JAK1) | JAK1 pKi (JAK1) | Ki (JAK2) | JAK2 pKi (JAK2) | BEAS2B pIC50 [1] |
| --- | --- | --- | --- | --- | --- | --- | --- |
| CCc1cc(O)ccc1-c1ccc2c(-c3nc(C4=CCN(C(=O)[C@@H]5CCCN5)CC4)c[nH]3)n[nH]c2c1F [Compound 16, (S)-6-(2-ethyl-4-hydroxyphenyl)-7-fluoro-3-(4-(1-prolyl-1,2,3,6-tetrahydropyridin-4-yl)-1H-imidazol-2-yl)-1H-indazole] | 1 to 10 nM | 31.6 to 100 nM | 1 to 10 nM | – | – | – | – |
| CCc1cc(O)c(F)cc1-c1ccc2c(-c3nc(C4=CCNC4)c[nH]3)n[nH]c2c1F [Example 18, 4-(3-(4-(2,5-dihydro-1H-pyrrol-3-yl)-1H-imidazol-2-yl)-7-fluoro-1H-indazol-6-yl)-5-ethyl-2-fluorophenol] | 1 to 10 nM | 3.16 to 10 nM | – | A (A represents a pKi value ≥10 (Ki≤0.1 nM)) | – | – | – |
| CCc1cc(O)ccc1-c1ccc2c(-c3nc(C4=CCN(C5CCCCC5)CC4)c[nH]3)n[nH]c2c1F [Example 122] | 1 to 10 nM | 31.6 to 100 nM | 0.1 to 1 nM | – | – | – | – |
| CCc1cc(O)ccc1-c1ccc2c(-c3nc(C4=CCCN(C5CCCCC5)C4)c[nH]3)n[nH]c2c1F [Example 126] | 1 to 10 nM | 31.6 to 100 nM | 0.1 to 1 nM | – | – | – | – |
| Oc1ccc(-c2ccc3c(-c4nc(C5=CCNC5)c[nH]4)n[nH]c3c2F)c(CC(F)(F)F)c1 [Example 357] | – | 31.6 to 100 nM | 0.1 to 1 nM | – | 0.1 to 1 nM | – | – |
| CCc1cc(O)ccc1-c1ccc2c(-c3nc(C4=CC5CNCCN5CC4)c[nH]3)n[nH]c2c1F (stereo not drawn) [Example 358] | – | 31.6 to 100 nM | 0.1 to 1 nM | – | 0.1 to 1 nM | – | – |
| CCc1cc(O)ccc1-c1ccc2c(-c3nc(C4=CCN([C@H]5CC[C@@](O)(C(F)(F)F)CC5)C4)c[nH]3)n[nH]c2c1F [Example 359] | – | 31.6 to 100 nM | 1 to 10 nM | – | 0.1 to 1 nM | – | – |
| CCc1cc(O)ccc1-c1ccc2c(-c3nc(C4=C[C@H](CC(=O)N5CCCC5)NC4)c[nH]3)n[nH]c2c1F [Example 360] | – | 31.6 to 100 nM | – | A (A represents a pKi value ≥10 (Ki≤0.1 nM)) | – | A (A represents a pKi value ≥10 (Ki≤0.1 nM)) | – |
| CCc1cc(O)ccc1-c1ccc2c(-c3nc(C4=C[C@H](CC(=O)N5CCOCC5)NC4)c[nH]3)n[nH]c2c1F [Example 361] | – | 31.6 to 100 nM | 0.1 to 1 nM | – | – | A (A represents a pKi value ≥10 (Ki≤0.1 nM)) | – |
| CCc1cc(O)ccc1-c1ccc2c(-c3nc(C4=CCN(C(=O)CNCCOC)C4)c[nH]3)n[nH]c2c1F [Example 362] | – | 31.6 to 100 nM | 0.1 to 1 nM | – | – | A (A represents a pKi value ≥10 (Ki≤0.1 nM)) | – |
| CCc1cc(O)ccc1-c1ccc2c(-c3nc(C4=CCN(C(=O)CCN(C)C)C4)c[nH]3)n[nH]c2c1F [Example 363] | – | 31.6 to 100 nM | 0.1 to 1 nM | – | – | A (A represents a pKi value ≥10 (Ki≤0.1 nM)) | – |
| CCc1cc(O)ccc1-c1ccc2c(-c3nc(C4=CCN(C(=O)CN(CCO)CCO)C4)c[nH]3)n[nH]c2c1F [Example 364] | – | 31.6 to 100 nM | 0.1 to 1 nM | – | – | A (A represents a pKi value ≥10 (Ki≤0.1 nM)) | – |
| CCc1cc(O)ccc1-c1ccc2c(-c3nc(C4=CCN(C(=O)CN5CCN(C)CC5)C4)c[nH]3)n[nH]c2c1F [Example 365] | – | 31.6 to 100 nM | 0.1 to 1 nM | – | – | A (A represents a pKi value ≥10 (Ki≤0.1 nM)) | – |
| CCc1cc(O)ccc1-c1ccc2c(-c3nc(C4=CCNC(C(C)C)C4)c[nH]3)n[nH]c2c1F (stereo not drawn) [Example 368] | – | 31.6 to 100 nM | 0.1 to 1 nM | – | 0.1 to 1 nM | – | – |
| Oc1ccc(-c2ccc3c(-c4nc(C5=CCNCC5)c[nH]4)n[nH]c3c2)c(CC(F)(F)F)c1 [Example 369] | – | 31.6 to 100 nM | 0.1 to 1 nM | – | 0.1 to 1 nM | – | – |
| CCc1cc(O)ccc1-c1ccc2c(-c3nc(C4=CCNC(C(C)(C)C)C4)c[nH]3)n[nH]c2c1F (stereo not drawn) [Example 370] | – | 31.6 to 100 nM | 1 to 10 nM | – | 0.1 to 1 nM | – | – |
| CCc1cc(O)c(C)cc1-c1ccc2c(-c3nc(C4=CCNCC4)c[nH]3)n[nH]c2c1F [Example 371] | – | 31.6 to 100 nM | 1 to 10 nM | – | 1 to 10 nM | – | – |
| CCc1cc(O)ccc1-c1ccc2c(-c3nc(C4=CC(c5ccccc5)NC4)c[nH]3)n[nH]c2c1F (stereo not drawn) [Example 372] | – | 31.6 to 100 nM | 1 to 10 nM | – | 1 to 10 nM | – | – |

| Structure (SMILES) | Ki (TYK2) | IC50 [1] | Ki (JAK1) | JAK1 pKi (JAK1) | Ki (JAK2) | JAK2 pKi (JAK2) | BEAS2B pIC50 [1] |
| --- | --- | --- | --- | --- | --- | --- | --- |
| CCc1cc(O)ccc1-c1ccc2c(-c3nc(C4=C[C@H](CC(=O)N5CCN(C)CC5)NC4)c[nH]3)n[nH]c2c1F [Example 373] | – | 31.6 to 100 nM | 0.1 to 1 nM | – | – | A (A represents a pKi value ≥10 (Ki≤0.1 nM)) | – |
| CCc1cc(O)ccc1-c1ccc2c(-c3nc(C4=CCN(C(=O)COCCN(C)C)C4)c[nH]3)n[nH]c2c1F [Example 374] | – | 31.6 to 100 nM | 0.1 to 1 nM | – | – | A (A represents a pKi value ≥10 (Ki≤0.1 nM)) | – |
| CCc1cc(O)ccc1-c1ccc2c(-c3nc(C4=CCN(C(=O)[C@H](COC)NC)C4)c[nH]3)n[nH]c2c1F [Example 375] | – | 31.6 to 100 nM | 0.1 to 1 nM | – | – | A (A represents a pKi value ≥10 (Ki≤0.1 nM)) | – |
| CCc1cc(O)ccc1-c1ccc2c(-c3nc(C4=CCNC(C)(C)C4)c[nH]3)n[nH]c2c1 [Example 376] | – | 31.6 to 100 nM | 0.1 to 1 nM | – | 0.1 to 1 nM | – | – |
| CCc1cc(O)ccc1-c1ccc2c(-c3nc(C4=CCNC(C)(C)C4)c[nH]3)n[nH]c2c1F [Example 377] | – | 31.6 to 100 nM | 0.1 to 1 nM | – | 0.1 to 1 nM | – | – |
| Oc1ccc(-c2ccc3c(-c4nc(C5=CCNC5)c[nH]4)n[nH]c3c2)c(CC(F)(F)F)c1 [Example 378] | – | 31.6 to 100 nM | 0.1 to 1 nM | – | 0.1 to 1 nM | – | – |
| CCc1cc(O)ccc1-c1ccc2c(-c3nc(C4=C(C(=O)N(C)C)CNCC4)c[nH]3)n[nH]c2c1F [Example 379] | – | 31.6 to 100 nM | 0.1 to 1 nM | – | – | A (A represents a pKi value ≥10 (Ki≤0.1 nM)) | – |
| CCc1cc(O)ccc1-c1ccc2c(-c3nc(C4=CCN(C(=O)CCNC)C4)c[nH]3)n[nH]c2c1F [Example 380] | – | 31.6 to 100 nM | 0.1 to 1 nM | – | – | A (A represents a pKi value ≥10 (Ki≤0.1 nM)) | – |
| CCc1cc(O)ccc1-c1ccc2c(-c3nc(C4=CCN(C(=O)CCNCCOC)C4)c[nH]3)n[nH]c2c1F [Example 381] | – | 31.6 to 100 nM | 0.1 to 1 nM | – | – | A (A represents a pKi value ≥10 (Ki≤0.1 nM)) | – |
| CCc1cc(O)ccc1-c1ccc2c(-c3nc(C4=CCN(C(=O)[C@H](CO)NC)C4)c[nH]3)n[nH]c2c1F [Example 385] | – | 31.6 to 100 nM | 0.1 to 1 nM | – | – | A (A represents a pKi value ≥10 (Ki≤0.1 nM)) | – |
| CCc1cc(O)ccc1-c1ccc2c(-c3nc(C4=CCN[C@H](CO)C4)c[nH]3)n[nH]c2c1F [Example 386] | – | – | 0.1 to 1 nM | – | 0.1 to 1 nM | – | C (C represents a pIC50 value between 7 (included) and 7.5) |
| Oc1ccc(-c2ccc3c(-c4nc(C5=CCNCC5)c[nH]4)n[nH]c3c2F)c(CC(F)(F)F)c1 [Example 387] | – | 31.6 to 100 nM | 1 to 10 nM | – | 0.1 to 1 nM | – | – |
| CCc1cc(O)ccc1-c1ccc2c(-c3nc(C4=CC(C(C)C)NC4)c[nH]3)n[nH]c2c1F (stereo not drawn) [Example 388] | – | 31.6 to 100 nM | 1 to 10 nM | – | 1 to 10 nM | – | – |
| CCc1cc(O)ccc1-c1ccc2c(-c3nc(C4=CCN(C(=O)COCCNCCOC)C4)c[nH]3)n[nH]c2c1F [Example 389] | – | 100 to 316 nM | 0.1 to 1 nM | – | – | A (A represents a pKi value ≥10 (Ki≤0.1 nM)) | – |
| CCc1cc(O)ccc1-c1ccc2c(-c3nc(C4=CCN([C@H]5CC[C@](O)(C(F)(F)F)CC5)C4)c[nH]3)n[nH]c2c1F [Example 391] | – | 100 to 316 nM | 0.1 to 1 nM | – | 0.1 to 1 nM | – | – |
| CCc1cc(O)ccc1-c1ccc2c(-c3nc(C4=CCN[C@H](CO)C4)c[nH]3)n[nH]c2c1F [Example 392] | – | – | – | B (B represents a pKi value between 9 (included) and 10 (Ki between 1 nM and 0.1 nM)) | – | B (B represents a pKi value between 9 (included) and 10 (Ki between 1 nM and 0.1 nM)) | D (D represents a pIC50 value between 6.5 (included) and 7) |
| CCc1cc(O)ccc1-c1ccc2c(-c3nc(C4=CCN(CCS(=O)(=O)NC)C4)c[nH]3)n[nH]c2c1F [Example 393] | – | 100 to 316 nM | 0.1 to 1 nM | – | 0.1 to 1 nM | – | – |

From patent US20240092758A1, “IMIDAZOLO INDAZOLE COMPOUNDS AS JAK INHIBITORS” (Theravance Biopharma R&D IP, LLC, priority 2021, published 2024)
